Consider 84 compounds from ChEMBL document CHEMBL3301361, “Experimental in vitro DMPK and physicochemical data on a set of publicly disclosed compounds”.

The nature of the series: in vitro. The conditions noted are these: human, plasma, PPB.
One may read the fraction unbound as free concentration divided by total concentration. Turning to `Cc1cnc(Nc2cc(N3CCOCC3)nc(N[C@@H](C)c3ccc(F)cn3)n2)s1`, the free fraction (fraction unbound) at 5 h is 0.0262. Under `COc1cccc(-c2cc3c(N[C@H]4CCCNC4)ncc(C(N)=O)c3s2)c1` stands 0.0437; under `Cc1ccc(-c2cc(C(=O)NCc3cn(C)nc3C)c3cc(Br)ccc3n2)cc1`, 0.0063; under `Cc1nc(N2CCOCC2)c2cc(-c3ccccc3)sc2n1`, 0.0042. Under `CNC(=O)c1[nH]cnc1C(=O)Nc1ccc(Cl)cc1` stands 0.0268; under `Cc1sc2c(c1C)c(=O)n(-c1ccc(F)cc1)c(=O)n2CC(=O)NCc1ccco1`, 0.0268; under `COc1cccc(C(=O)N2C(C(=O)O)CSC2c2ccccc2Cl)c1` (centres undefined), 0.0139. The result for `O=C(CCS(=O)(=O)c1ccc(Br)cc1)NCCc1ccccc1` reads 0.04; that for `O=C(c1ccccc1)N1CCC(c2nc3ccccc3o2)CC1`, 0.0457. In the case of `CCOC(=O)[C@H](CCc1ccccc1)N[C@@H](C)C(=O)N1Cc2ccccc2C[C@H]1C(=O)O`, the fraction unbound at 5 h was 0.0418. Under `CCOc1cc2nnc(C(N)=O)c(Nc3ccc(F)cc3F)c2cc1N1CCN(C)CC1` stands 0.0383; under `C[C@H]1CN(Cc2cc(Cl)ccc2OCC(=O)O)CCN1S(=O)(=O)c1ccccc1`, 0.0274; under `CC(C)(C)COc1ccc(-n2cc(C(=O)O)cn2)cc1C#N`, 0.0224.

As to `O=C(CN1CCCC1)N1c2ccccc2Sc2ccc(C(F)(F)F)cc21`, the free fraction (fraction unbound) at 5 h is 0.0229. Take `COc1ccc(Cl)cc1NC(=O)CCS(=O)(=O)c1ccc(C)cc1`: the fraction unbound at 5 h is 0.0219. On to `CN[C@@H](C)C(=O)N[C@H](C(=O)N[C@H]1CCCN(CCc2ccc(Cl)cc2)C1)C(C)(C)C`, for which the fraction unbound at 5 h is 0.0293. The compound `CN[C@@H](C)C(=O)N[C@H](C(=O)N[C@H]1CCCN(CCc2ccc(Br)cc2)C1)C(C)(C)C` showed a fraction unbound at 5 h of 0.0229.

The compound `COc1cc(OC)c(S(=O)(=O)N2c3ccccc3CC2C)cc1NC(C)=O` (centres undefined) had a fraction unbound at 5 h of 0.0437. As to `COc1cc(OC)c(S(=O)(=O)N2c3ccccc3CCC2C)cc1NC(=O)CSc1ccncc1` (centres undefined), the free fraction (fraction unbound) at 5 h is 0.0293. In turn, `N#Cc1c(-c2ccc(-c3ccccc3O)cc2)nc2ccncc2c1O` showed a fraction unbound at 5 h of 0.0026.

The compound `N#Cc1c(-c2ccc(-c3ccncc3Cl)cc2)nc2ccncc2c1O` showed a fraction unbound at 5 h of 0.0055. The compound `N#Cc1c(-c2ccc(-c3cccnc3)cc2)nc2ccncc2c1O` showed a fraction unbound at 5 h of 0.007. `CNc1c(Br)cnc2[nH]c(-c3ccc(OCCN4CCOCC4)cc3)nc12` showed a fraction unbound at 5 h of 0.0149. Under `COc1ccc(-c2nc3c(NCCCNC(=O)c4cccnc4)c(Br)cnc3[nH]2)cc1` stands 0.013; under `CC(C)COc1cccc(/C=C2\SC(=O)NC2=O)c1N1CCC[C@@H](N)C1`, 0.0119; under `O=C(O)/C=C/c1cccc(-c2cnc3[nH]ccc3c2)c1`, 0.0219. For the compound `CCNC(=O)c1cc2c(-n3ccc(C(F)(F)F)n3)c(-c3cncc(-c4n[nH]c(=O)o4)c3)cnc2[nH]1`, the fraction unbound at 5 h is 0.0437. Compound `CC(=O)Nc1ccc2c(c1)N(c1cc(NC3CC3)n3ncc(C#N)c3n1)CCC2` gave a fraction unbound at 5 h of 0.0262. Under `CC(=O)Nc1ccc2c(c1)c(-c1cc(NC3CC3)n3ncc(C#N)c3n1)cn2CCO` stands 0.0179; under `COC(=O)CCn1cc(-c2cc(NC3CC3)n3ncc(C#N)c3n2)c2cc(NC(C)=O)ccc21`, 0.016. Under `COc1ncc(-c2cccc3c2C[C@H](NC(=O)c2ccc(OCCC(F)(F)F)nc2)CO3)cn1` stands 0.0133; under `O=C(O)C(c1ccccc1)N1CCO[C@H](CN2CCC(Oc3ccc(Cl)c(Cl)c3)CC2)C1` (some centres undefined), 0.0064. The result for `O=C(O)COc1ccccc1N1CCC(CN2CCC(Oc3ccc(Cl)c(Cl)c3)CC2)CC1` reads 0.0114; that for `CCN(Cc1cccc2ccccc12)c1cc(N2CCOCC2)nc(=O)[nH]1`, 0.0358. For `Cc1cn([C@H]2CCCN(Cc3ccc(C(=O)O)c(Oc4cccc(Cl)c4)c3)C2)c(=O)[nH]c1=O`, the free fraction (fraction unbound) at 5 h is 0.0268.

On to `Cc1cccc(Oc2cc(CN3CCC[C@H](n4cc(C)c(=O)[nH]c4=O)C3)ccc2C(=O)O)c1`, for which the fraction unbound at 5 h is 0.0383.

For the compound `CC(C)COc1ccc(-c2cc(=O)[nH]c(N)n2)cc1`, the fraction unbound at 5 h was 0.0374. The result for `CC(C)COc1ccc(-c2cc(=O)[nH]c(N)n2)cc1C#N` reads 0.0409; that for `Cc1csc(NC(=O)COc2ncnc3c2cnn3-c2ccccc2Cl)n1`, 0.0082. The compound `COc1cc(OC)c(S(=O)(=O)N2c3ccccc3Oc3ccccc32)cc1NC(=O)Cc1ccnc(F)c1` displayed a free fraction (fraction unbound) at 5 h of 0.0099.

Consider `O=C(NC[C@@H](O)CN1CCC(Oc2ccc(Cl)c(Cl)c2)CC1)c1c[nH]c(=O)c2cc(F)ccc12`, for which the free fraction (fraction unbound) at 5 h was 0.0108. The result for `COc1cc(OC)c(S(=O)(=O)N2c3ccccc3Oc3ccccc32)cc1NC(=O)/C=C/C(=O)O` reads 0.024; that for `Cc1cn([C@H]2CCCN(S(=O)(=O)c3cccc(Oc4ccccc4)c3)C2)c(=O)[nH]c1=O`, 0.0262. Under `Cc1cn([C@H]2CCCN(S(=O)(=O)c3ccc(C#N)c(Oc4cccc(Cl)c4)c3)C2)c(=O)[nH]c1=O` stands 0.0229; under `COc1ccc(S(=O)(=O)N2CCC[C@H](n3cc(C)c(=O)[nH]c3=O)C2)cc1Oc1cccc(Cl)c1`, 0.0251. `COCCNC(=O)c1ccc(Nc2ncc3cc(-c4ccncc4C)ccc3n2)cc1` had a fraction unbound at 5 h of 0.0139. For the compound `COCCNC(=O)c1ccc(Nc2ncc3cc(-c4cnccc4C)ccc3n2)cc1`, the unbound share (fraction unbound) at 5 h is 0.0262. The result for `CN(C)CCNC(=O)c1ccc(Nc2ncc3cc(-c4ccncc4)ccc3n2)cc1` reads 0.0111; that for `c1cc(-c2ccc3nc(Nc4ccc(OCCN5CCCC5)cc4)ncc3c2)ccn1`, 0.028; that for `COc1cccc(OC)c1OCCNCC1COc2ccccc2O1` (centres undefined), 0.024. The result for `C[C@H](CO)Nc1nc(SCc2cccc(F)c2F)nc2[nH]ncc12` reads 0.035; that for `O=C(Nc1ccccc1-c1cn2c(CN3CCNCC3)csc2n1)c1cnc2ccccc2n1`, 0.0099.

Compound `O=C(O)COn1c(-c2ccccc2)nc2ccc([N+](=O)[O-])cc21` had a fraction unbound at 5 h of 0.0139. Under `Cc1cc(Nc2nc(N[C@@H](C)c3ccc(F)cc3)ncc2Cl)n[nH]1` stands 0.009; under `Cc1ncc(NC(=O)c2cc(NC(=O)c3cc(F)cc(C(F)(F)F)c3)ccc2Cl)s1`, 0.0035; under `Cc1ncc(NC(=O)c2cc(NC(=O)c3cccc(C(F)(F)F)c3)ccc2C)s1`, 0.0119. Regarding `Cc1ncc(NC(=O)c2cc(NC(=O)c3cccc(C(F)(F)F)c3)ccc2Cl)s1`, the fraction unbound at 5 h is 0.004.

`CNC(=O)c1cc(Oc2ccc3c(c2)nc(Nc2ccc(C(F)(F)F)cc2)n3C)ccn1` gave a fraction unbound at 5 h of 0.005. The result for `COc1ccc(N(C(=O)c2ccccc2)C(C(=O)NC2CCCC2)c2ccccc2F)c(OC)c1` (centres undefined) reads 0.0033; that for `O=C(COc1cccc(Cl)c1)NC1CCN(Cc2ccn(-c3ccc(C(F)(F)F)cc3)c2)CC1`, 0.0072; that for `CCOc1cc2ncc(C(N)=O)c(Nc3cccc(Cl)c3Cl)c2cc1N1CCN(CC)CC1`, 0.0183. The result for `CCOc1cc2ncc(C(N)=O)c(Nc3cccc(Cl)c3Cl)c2cc1N1CCN(C(C)C)CC1` reads 0.0146. Under `CCOc1cc2ncc(C(N)=O)c(Nc3cccc(Cl)c3Cl)c2cc1N1CCCN(C)CC1` stands 0.0163; under `COc1cc2ncc(C(N)=O)c(Nc3cccc(Cl)c3Cl)c2cc1N1CCN(C)CC1`, 0.0447; under `CN1CCN(c2ccc3ncc(C(N)=O)c(Nc4cccc(Cl)c4Cl)c3c2)CC1`, 0.0457.

`CCOc1cc2ncc(C(N)=O)c(Nc3ccc(F)cc3F)c2cc1N1CCCN(C2CC2)CC1`: the fraction unbound at 5 h was 0.0219. Consider `CC(C)Oc1cc2ncc(C(N)=O)c(Nc3ccc(F)cc3F)c2cc1N1CCN(C)CC1`, for which the fraction unbound at 5 h is 0.0171. Take `COc1cc2ncc(C(N)=O)c(Nc3ccc(Cl)cc3Cl)c2cc1N1CCN(C)CC1`: the unbound share (fraction unbound) at 5 h is 0.0321. With `CN1CCN(c2cc3c(Nc4cccc(Cl)c4Cl)c(C(N)=O)cnc3cc2F)CC1`, the fraction unbound at 5 h is 0.0437. The result for `COc1cc2ncc(C(N)=O)c(Nc3ccc(Cl)c(Cl)c3)c2cc1N1CCN(C)CC1` reads 0.0358; that for `CCOc1cc2ncc(C(N)=O)c(Nc3ccc(F)c(Cl)c3)c2cc1N1CCN(C)CC1`, 0.0343; that for `COc1cc2ncc(C(N)=O)c(Nc3cccc(Cl)c3Cl)c2cc1NCCN1CCCCC1`, 0.0209.

`CCOc1cc2ncc(C(N)=O)c(Nc3cccc(Cl)c3Cl)c2cc1N1CCN(CCO)CC1` showed a fraction unbound at 5 h of 0.0477. The result for `CCOc1cc2ncc(C(N)=O)c(Nc3cccc(Cl)c3Cl)c2cc1N1CCN(CCOC)CC1` reads 0.0171; that for `CCOc1cc2ncc(C(N)=O)c(Nc3ccc(F)cc3F)c2cc1N1CCN(CC)CC1`, 0.0457; that for `O=C(Nc1ccc(CCO)cc1)c1cc2cc(Cl)ccc2[nH]1`, 0.0139.

`Cc1ncc(NC(=O)c2cc(NC(=O)c3cc(F)cc(Cl)c3)ccc2Cl)s1` gave an unbound share (fraction unbound) at 5 h of 0.004. As for `CC(C)Oc1cc2ncc(C(N)=O)c(Nc3cccc(Cl)c3Cl)c2cc1N1CCN(C)CC1`, the fraction unbound at 5 h is 0.0139. Under `O=C(Nc1ccc(Cl)c(C(=O)Nc2cncs2)c1)c1cccc(C(F)(F)F)c1` stands 0.004; under `CC(C)Oc1cc2ncc(C(N)=O)c(Nc3ccc(Cl)c(Cl)c3)c2cc1N1CCN(C)CC1`, 0.0099; under `O=c1[nH]cnc2scc(-c3cccs3)c12`, 0.0111. As to `O=C(Nc1cccc2cccnc12)c1ccc(N2C(=O)[C@@H]3[C@H](C2=O)[C@@H]2C=C[C@H]3C2)cc1`, the fraction unbound at 5 h is 0.0111. The result for `Cc1nc(C(F)(F)F)ccc1C(=O)Nc1ccc(Cl)c(-c2ccccn2)c1` reads 0.0099; that for `CN1CCN(C2=Nc3ccccc3Nc3ccc(OS(=O)(=O)C(F)(F)F)cc32)CC1`, 0.0358.
